{
  "source": "paper PMC5854746",
  "about": "(Cancer Chemotherapy and Pharmacology, 2018)",
  "key": {"[1]": {"settings": "cited from earlier work"}, "[2]": {"settings": "Optimized value, updated based on literature data ref 1, 32; cited from earlier work"}, "[3]": {"system": "plasma proteins, mainly albumin and α-1 acid glycoprotein", "settings": "cited from earlier work"}, "[4]": {"settings": "oral; 9 (ref 1, 11); cited from earlier work"}, "clinical": {"experiment": "clinical", "settings": "human, plasma; for clearance: Cltot; for half-life: T 1/2el; for Vd: V d; for AUC(0-t): 100 mg p.o.", "excerpt": "Patients eligible for this phase 1b study suffered from histologically or cytologically documented adenocarcinoma of the pancreas with locally advanced not radically resectable or metastatic disease. […] All concomitant medication was reported and the intake of drugs inhibiting or inducing CYP3A4 was prohibited during the study, along with medication specifically contraindicated to one of the three study drugs [1, 23, 24]. All patients were asked to keep a diary during their treatment, containing co-medication and health status to retrace possible interactions and treatment failures.\nPatients had been informed about the aim of this investigation and had given their written consent.\nFor the pharmacokinetic analysis of plasma concentration data on day 1, Phoenix WinNonlin version 6.2.1 software (Pharsight Corporation, a Certara™ company) was used to calculate the PK parameters Cpeak, Ctrough, Tmax, AUC0–24 as well as the volume of distribution (Vd), total body clearance (Cltot) and terminal half-life (T1/2el). […] From day 2 until day 8, the trough and peak concentrations were analyzed, but only the trough concentrations were evaluated until the end of the study. The parameters were calculated as arithmetic mean ± SD and the range (min–max) was calculated for comparison to the simulation output."}, "[5]": {"settings": "Day 3, observed, 100 mg p.o. q.d., n=26"}, "[6]": {"settings": "Day 6 (steady state), observed, 100 mg p.o. q.d., n=26"}, "[7]": {"settings": "co-administered ARAs, study population"}, "[8]": {"settings": "oral, mean ± SD, Day 1, observed, n=26, calculated with a bioavailability of 60%"}, "[9]": {"settings": "oral, min–max, Day 1, observed, n=26"}},
  "note": "Where “and” joins values, the source holds several entries; their conditions need not be identical. Equal entries are not always repeated. Entries after “also recorded” stand apart in the source; their conditions may differ. Where two headings read alike, the source gives them in different places.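 Throughout, for C last (trough at 24 h), mean ± SD: plasma pharmacokinetics in a phase 1b study of patients with locally advanced or metastatic pancreatic adenocarcinoma.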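 Throughout, for C peak, mean ± SD: plasma pharmacokinetics in a phase 1b study of patients with locally advanced or metastatic pancreatic adenocarcinoma.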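 Throughout, for C trough, mean ± SD: plasma pharmacokinetics in a phase 1b study of patients with locally advanced or metastatic pancreatic adenocarcinoma.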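 Throughout, for T max, median: plasma pharmacokinetics in a phase 1b study of patients with locally advanced or metastatic pancreatic adenocarcinoma.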",
  "data": [
    {"smiles": "C#Cc1cccc(Nc2ncnc3cc(OCCOC)c(OCCOC)cc23)c1", "note": "[erlotinib]", "values": [
      {"measurement": "Solubility in water", "setting": "[1]; free base", "result": "only very slightly soluble in water"},
      {"measurement": "Biopharmaceutics Classification System (BCS) class", "setting": "[1]; low solubility, high permeability", "result": "class II"},
      {"measurement": "pKa", "setting": "[1]; weak base, limited solubility at pH above it", "result": 5.4},
      {"measurement": "Basic pKa", "setting": "[2]", "result": 5.4},
      {"measurement": "Intrinsic solubility", "setting": "[2]", "result": 8.9, "unit": "µg/mL"},
      {"measurement": "C peak, mean ± SD", "setting": "Day 1, observed, 100 mg erlotinib p.o. q.d., patients n=26, arithmetic mean", "result": "0.84 µg/mL and 0.84 ± 0.54 µg/mL"},
      {"measurement": "C last (trough at 24 h), mean ± SD", "setting": "Day 1, observed, 100 mg p.o. q.d., n=26", "result": "330 ± 290", "unit": "ng/mL"},
      {"measurement": "T max, median", "setting": "Day 1, observed, 100 mg p.o., n=26", "result": 2.00, "unit": "h"},
      {"measurement": "C peak, mean ± SD", "setting": "[5]", "result": "1.04 ± 0.62", "unit": "µg/mL"},
      {"measurement": "C trough, mean ± SD", "setting": "[5]", "result": "450 ± 370", "unit": "ng/mL"},
      {"measurement": "C peak, mean ± SD", "setting": "[6]", "result": "1.38 µg/mL and 1.38 ± 0.66 µg/mL"},
      {"measurement": "C trough, mean ± SD", "setting": "[6]", "result": "720 ng/mL and 720 ± 530 ng/mL"},
      {"measurement": "Mean trough concentration ± SD", "setting": "Pat.3, weeks 1–50, N=50, 100 mg q.d.", "result": "0.89 ± 0.68", "unit": "µg/mL"},
      {"measurement": "Mean trough concentration ± SD", "setting": "Pat.4, weeks 1–8, N=7, 100 mg q.d.", "result": "0.66 ± 0.27", "unit": "µg/mL"},
      {"measurement": "Mean trough concentration ± SD", "setting": "Pat.5, co-medication of acid reducing agents, weeks 1–4, N=4, 100 mg q.d.", "result": "0.37 ± 0.09", "unit": "µg/mL"},
      {"measurement": "Mean trough concentration ± SD", "setting": "Pat.6, weeks 1–8, N=8, 100 mg q.d.", "result": "1.78 ± 0.74", "unit": "µg/mL"},
      {"measurement": "Mean trough concentration ± SD", "setting": "Pat.7, weeks 1–9, N=9, 100 mg q.d.", "result": "1.20 ± 0.51", "unit": "µg/mL"},
      {"measurement": "Reduction of AUC0–24", "setting": "[7]", "result": 52, "unit": "%"},
      {"measurement": "Reduction of Cmax", "setting": "[7]", "result": 56, "unit": "%"},
      {"measurement": "Patients with concentrations below the activity threshold of 0.5 µg/ml", "setting": "during the first week", "result": 7, "unit": "%"},
      {"measurement": "Patients that never reached the threshold of 0.5 µg/ml", "setting": "first week of erlotinib therapy", "result": "2 of the 26 patients"},
      {"measurement": "Patients with Ctrough values below the activity threshold", "setting": "long-term analysis, all received ARAs concomitantly", "result": "5 of the 10 patients"},
      {"measurement": "Accumulation of erlotinib in plasma", "setting": "long-term monitoring up to 50 weeks, 100 mg q.d.", "result": "did not show any significant accumulation; also recorded: did not lead to drug accumulation"},
      {"measurement": "Patients that did not reach the threshold of 0.5 µg/ml", "setting": "within 24 h after the first administration", "result": "10 of the 26 patients"},
      {"measurement": "Bound to plasma proteins", "setting": "[3]", "result": "approximately 95%"},
      {"measurement": "Bioavailability (estimated)", "setting": "[4]", "result": 60, "unit": "%"},
      {"measurement": "clearance", "setting": "clinical; [8]", "result": 91.8, "unit": "mL/min"},
      {"measurement": "clearance", "setting": "clinical; [9]", "result": "7.83 to 502", "unit": "mL/min"},
      {"measurement": "concentration at 24 h", "setting": "clinical; oral, Mean erlotinib trough concentrations calculated for each patient, range, long-term study, 10 patients, 100 mg q.d.", "result": "60 to 1780", "unit": "ng/mL"},
      {"measurement": "concentration at 24 h", "setting": "clinical; oral, Mean trough concentration ± SD, Pat.1, weeks 1–15, N=10, 100 mg erlotinib q.d.", "result": "1670 ± 440", "unit": "ng/mL"},
      {"measurement": "concentration at 24 h", "setting": "clinical; oral, Mean trough concentration ± SD, Pat.10, co-medication of acid reducing agents, weeks 1–11, N=11, 100 mg q.d.", "result": "160 ± 60", "unit": "ng/mL"},
      {"measurement": "concentration at 24 h", "setting": "clinical; oral, Mean trough concentration ± SD, Pat.2, co-medication of acid reducing agents, weeks 1–9, N=9, 100 mg q.d.", "result": "160 ± 40", "unit": "ng/mL"},
      {"measurement": "concentration at 24 h", "setting": "clinical; oral, Mean trough concentration ± SD, Pat.8, co-medication of acid reducing agents, weeks 1–16, N=16, 100 mg q.d.", "result": "270 ± 380", "unit": "ng/mL"},
      {"measurement": "concentration at 24 h", "setting": "clinical; oral, Mean trough concentration ± SD, Pat.9, co-medication of acid reducing agents, weeks 1–50, N=47, 100 mg q.d.", "result": "60 ± 40", "unit": "ng/mL"},
      {"measurement": "half-life", "setting": "clinical; oral, mean ± SD, Day 1, observed, n=26", "result": "18.7 ± 13.1", "unit": "h"},
      {"measurement": "half-life", "setting": "clinical; [9]", "result": "4.1 to 59", "unit": "h"},
      {"measurement": "concentration at 24 h", "setting": "clinical; oral, Trough concentration min–max, Pat.1, weeks 1–15, N=10, 100 mg erlotinib q.d.", "result": "770 to 2200", "unit": "ng/mL"},
      {"measurement": "concentration at 24 h", "setting": "clinical; oral, Trough concentration min–max, Pat.10, co-medication of acid reducing agents, weeks 1–11, N=11, 100 mg q.d.", "result": "70 to 310", "unit": "ng/mL"},
      {"measurement": "concentration at 24 h", "setting": "clinical; oral, Trough concentration min–max, Pat.8, co-medication of acid reducing agents, weeks 1–16, N=16, 100 mg q.d.", "result": "20 to 1310", "unit": "ng/mL"},
      {"measurement": "concentration at 24 h", "setting": "clinical; oral, Trough concentration min–max, Pat.9, co-medication of acid reducing agents, weeks 1–50, N=47, 100 mg q.d.", "result": "10 to 160", "unit": "ng/mL"},
      {"measurement": "concentration at 24 h", "setting": "clinical; oral, Trough plasma concentrations, range, long-term assessment (up to 50 weeks), 100 mg q.d., 10 patients", "result": "10 to 2400", "unit": "ng/mL"},
      {"measurement": "Vd", "setting": "clinical; [8]", "result": "97.9 ± 61.7", "unit": "L"},
      {"measurement": "Vd", "setting": "clinical; [9]", "result": "18 to 268", "unit": "L"},
      {"measurement": "Tmax", "setting": "clinical; po, 100 mg", "result": "1 to 8", "unit": "h"},
      {"measurement": "AUC(0-t)", "setting": "clinical; po, 100 mg, AUC0–24, mean ± SD, Day 1, observed, n=26", "result": "12500 ± 9380", "unit": "ng·h/mL"},
      {"measurement": "AUC(0-t)", "setting": "clinical; po, 100 mg, AUC0–24, min–max, Day 1, observed, n=26", "result": "1230 to 36400", "unit": "ng·h/mL"},
      {"measurement": "concentration at 24 h", "setting": "clinical; po, C last (trough at 24 h), mean ± SD, Day 1, observed, 100 mg p.o. q.d., n=26", "result": 330, "unit": "ng/mL"},
      {"measurement": "concentration at 24 h", "setting": "clinical; po, C last (trough at 24 h), min–max, Day 1, observed, 100 mg p.o. q.d., n=26", "result": "40 to 1220", "unit": "ng/mL"}
    ]}
  ]
}
